Results as given in ChEMBL document CHEMBL3832761, “MMV Pathogen Box Bioactivity Data” (2017).
pIC50: −log10 of the molar value. Values after ≈ are worked out from the molar mass of the structure shown.

Tests used:
Plasmodium falciparum [1] = experiment: Antimalarial activity: Asexual Blood Stage Plasmodium falciparum 3D7 IC50 (uM); assay type: functional, organism-based
Plasmodium falciparum [2] = experiment: Antimalarial activity: Asexual Blood Stage Plasmodium falciparum Dd2 IC50 (uM); assay type: functional, organism-based
Plasmodium falciparum [3] = experiment: Antimalarial activity: Asexual Blood Stage Plasmodium falciparum W2 IC50 (uM); assay type: functional, organism-based
Plasmodium berghei [4] = experiment: Antimalarial activity: Liver Stage Plasmodium berghei sporozoite Luciferase assay: inhibition at 10 uM (%); assay type: functional
Plasmodium falciparum [5] = experiment: Antimalarial activity: Gametocytes Plasmodium falciparum NF54 Gametocytes Stage V: inhibition at 10 uM (%); assay type: functional
Plasmodium falciparum [6] = experiment: Antimalarial activity: Gametocytes Plasmodium falciparum NF54 Gametocytes Stage V IC50 (uM); assay type: functional, organism-based
HepG2 [7] = experiment: Cytotoxicity data HepG2 CC20 (uM); assay type: functional
HepG2 [8] = experiment: HepG2 inhibition at 10 uM (%) Cytotoxicity; assay type: functional; settings: Homo sapiens
Plasmodium berghei [9] = experiment: Antimalarial activity: Liver Stage Plasmodium berghei sporozoite Luciferase assay IC50 (uM); assay type: functional, organism-based
HepG2 [10] = experiment: HepG2 CC50 (uM) Cytotoxicity; assay type: functional; settings: Homo sapiens
[11] = tested on: Mycobacterium tuberculosis; experiment: AntiMycobacterium tuberculosis activity 1-week GAST/Fe MIC (uM); assay type: functional; settings: 168 h
[12] = tested on: Mycobacterium tuberculosis; experiment: AntiMycobacterium tuberculosis activity 2-week GAST/Fe MIC (uM); assay type: functional; settings: 336 h
[13] = tested on: Mycobacterium tuberculosis; experiment: AntiMycobacterium tuberculosis activity 1-week 7H9/ADC/Tw MIC (uM); assay type: functional; settings: 168 h
[14] = tested on: Mycobacterium tuberculosis; experiment: AntiMycobacterium tuberculosis activity 2-week 7H9/ADC/Tw MIC (uM); assay type: functional; settings: 336 h
[15] = tested on: Mycobacterium tuberculosis; experiment: AntiMycobacterium tuberculosis activity 2-week Alamar Blue 7H9/ADC/Tw MIC (uM); assay type: functional; settings: 336 h
[16] = tested on: Mycobacterium tuberculosis; experiment: AntiMycobacterium tuberculosis activity 1-week 7H9/glucose/BSA/Tx MIC (uM); assay type: functional; settings: 168 h
[17] = tested on: Mycobacterium tuberculosis; experiment: AntiMycobacterium tuberculosis activity 2-week 7H9/glucose/BSA/Tx MIC (uM); assay type: functional; settings: 336 h
[18] = tested on: Mycobacterium tuberculosis; experiment: AntiMycobacterium tuberculosis activity 1-week 7H9/DPPC/cholesterol/BSA/Tx MIC (uM); assay type: functional; settings: 168 h
[19] = tested on: Mycobacterium tuberculosis; experiment: AntiMycobacterium tuberculosis activity 2-week 7H9/DPPC/cholesterol/BSA/Tx MIC (uM); assay type: functional; settings: 336 h
[20] = tested on: Mycobacterium tuberculosis; experiment: AntiMycobacterium tuberculosis activity 1-week 7H9/cholesterol/BSA/Tx MIC (uM); assay type: functional; settings: 168 h
[21] = tested on: Mycobacterium tuberculosis; experiment: AntiMycobacterium tuberculosis activity 2-week Alamar Blue 7H9/cholesterol/BSA/Tx MIC (uM); assay type: functional; settings: 336 h
[22] = tested on: Mycobacterium tuberculosis; experiment: (§1) AntiMycobacterium tuberculosis activity day 10 in 7H9/2.5mM butyrate/pH6/0.1mM nitrite MIC90 (uM); assay type: functional; settings: 240 h
[23] = tested on: Mycobacterium tuberculosis; experiment: AntiMycobacterium tuberculosis activity day 21 in 7H9/2.5mM butyrate/pH6/0.1mM nitrite MIC90 (uM); assay type: functional; settings: 504 h
[24] = tested on: Mycobacterium tuberculosis; experiment: as §1; assay type: functional; settings: 240 h; remark: listed apart in the source
[25] = tested on: Mycobacterium tuberculosis; experiment: AntiMycobacterium tuberculosis activity day 21 MIC99 in 7H9/2.5mM butyrate/pH6/0.1mM nitrite MIC99 (uM); assay type: functional; settings: 504 h
HepG2 [26] = experiment: HepG2 galactose CC50 (uM) Cytotoxicity; assay type: functional; settings: Homo sapiens, HepG2
HepG2 [27] = experiment: HepG2 glucose CC50 (uM) Cytotoxicity; assay type: functional; settings: Homo sapiens, HepG2

SMILES	pIC50 (Plasmodium falciparum [1])	pIC50 (Plasmodium falciparum [2])	pIC50 (Plasmodium falciparum [6])	MIC [11]	MIC [12]	MIC [13]	MIC [14]	MIC [15]	MIC [16]	MIC [17]	MIC [18]	MIC [19]	MIC [20]	MIC [21]	MIC90 [22]	MIC90 [23]	MIC90 [24]	MIC [25]	CC50 (HepG2 [26])	CC50 (HepG2 [27])	also measured
COc1cccc(CC(=O)N2CCC(n3c(C)nc4ccc(F)cc43)CC2)c1	6.62	6.64	6.51																		pIC50 (Plasmodium falciparum [3]): 6.60; Inhibition (Plasmodium berghei [4]): 38%; Inhibition (Plasmodium falciparum [5]): 72%; CC20 (HepG2 [7]): >80000 nM; inhibition at 10 µM (HepG2 [8]): 0%
Cc1ccc(NC(=O)c2nc[nH]c2C(=O)Nc2nc3ccccc3[nH]2)c(C)c1	6.44	6.64	< 5.08																		pIC50 (Plasmodium falciparum [3]): 6.49; Inhibition (Plasmodium berghei [4]): 99%; pIC50 (Plasmodium berghei [9]): < 5.00; Inhibition (Plasmodium falciparum [5]): 88%; CC20 (HepG2 [7]): 8430 nM; CC50 (HepG2 [10]): > 10000 nM
O=C(Nc1nc(-c2ccccn2)cs1)C1CC1c1ccccc1F (configuration not stated)	< 5.70	< 5.70	6.28																		inhibition at 10 µM (HepG2 [8]): 25%
CC(=O)N1CCc2cc3nc(C)cc(C)c3cc21				0.15 µM (≈ 0.036 µg/mL)	0.39 µM (≈ 0.0937 µg/mL)	> 50 µM	> 50 µM	4.7 µM (≈ 1.13 µg/mL)	> 50 µM	> 50 µM	2.3 µM (≈ 0.553 µg/mL)	25 µM (≈ 6.01 µg/mL)	3.13 µM (≈ 0.752 µg/mL)	2.3 µM (≈ 0.553 µg/mL)	6.25 µM (≈ 1.5 µg/mL)	12.5 µM (≈ 3 µg/mL)	> 50 µM	> 50 µM	> 50000 nM	> 50000 nM	
COc1cccc(NC(=O)c2c(NC(=O)c3cccnc3)sc3c2CCC3)c1				9.4 µM (≈ 3.7 µg/mL)	12.5 µM (≈ 4.92 µg/mL)	12.5 µM (≈ 4.92 µg/mL)	12.5 µM (≈ 4.92 µg/mL)	12.5 µM (≈ 4.92 µg/mL)	4.7 µM (≈ 1.85 µg/mL)	6.25 µM (≈ 2.46 µg/mL)	9.4 µM (≈ 3.7 µg/mL)	50 µM (≈ 19.7 µg/mL)	12.5 µM (≈ 4.92 µg/mL)	> 50 µM	3.12 µM (≈ 1.23 µg/mL)	> 50 µM	> 50 µM	> 50 µM	> 50000 nM	> 50000 nM	
COc1cc(Br)cc2cc(C(=O)Nc3cccc(C(F)(F)F)c3)c(=O)oc12				1.2 µM (≈ 0.531 µg/mL)	4.7 µM (≈ 2.08 µg/mL)	50 µM (≈ 22.1 µg/mL)	> 50 µM	> 50 µM	1.56 µM (≈ 0.69 µg/mL)	9.4 µM (≈ 4.16 µg/mL)	2.3 µM (≈ 1.02 µg/mL)	9.4 µM (≈ 4.16 µg/mL)	6.25 µM (≈ 2.76 µg/mL)	12.5 µM (≈ 5.53 µg/mL)	1.5 µM (≈ 0.663 µg/mL)	12.5 µM (≈ 5.53 µg/mL)	12.5 µM (≈ 5.53 µg/mL)	12.5 µM (≈ 5.53 µg/mL)	> 50000 nM	> 50000 nM	
